Experimental data published in article PMC3006138, “Fexinidazole – A New Oral Nitroimidazole Drug Candidate Entering Clinical Development for the Treatment of Sleeping Sickness” (PLoS Neglected Tropical Diseases, 2010).

Assays:
[1] = parameters: method as in ref 3 (report no. 0275-2007-R); conditions: single 50 mg/kg po, ref 3 (report no. 0275-2007-R); cited from earlier work
[2] = Preliminary embryo-foetal and early postnatal development study; assay type: in vivo, rat; conditions: pregnant rats
Description: In the rat study, fexinidazole was administered orally by gavage once a day from day 6 to day 17 of gestation or from day 6 of gestation to day 7 of lactation to 10 mated rat Crl:CD (SD)IGS BR rats[…]/group at doses of 50, 200, or 800 mg/kg/day. A control group received the vehicle alone (5% Tween 80/0.5% methocel).

rat liver cells = test: Ex vivo unscheduled DNA synthesis; assay type: in vivo
Description: Groups of young male Sprague-Dawley rats received fexinidazole at doses of 500, 1000, or 2000 mg/kg orally, and the livers were sampled either 2–4 h or 12–14 h after administration. Hepatocyte suspensions were prepared and incubated in the presence of […] thymidine. Slides of fixed hepatocytes were coated in photographic emulsion and stored for 14 days at 4°C in the dark. The silver grains above the nuclei or cytoplasm (background) were counted, providing a measure of DNA uptake during DNA repair. The difference between these two counts indicated the extent of DNA repair (nuclear net grain count).

[3] = Hepatocyte intrinsic clearance and metabolite profile; assay type: in vitro ADME, human; conditions: human, cryopreserved pooled hepatocytes, 1 µM
Description: Fexinidazole was incubated with cryopreserved hepatocytes from male CD-1 mice, male Sprague Dawley rats, male beagle dogs, male cynomolgus monkeys, and from pooled white or African-American human donor samples (purchased commercially), at concentrations of 1 µM and 10 µM. […] The incubated samples were analyzed by LC-MS after extraction into acetonitrile.
A quality control analysis of fexinidazole was performed via 1H-NMR in DMSO and LC- […]
provided by the Swiss Tropical Institute (Basel, Switzerland).
Reagents and solvents were of analytical grade and obtained from Sigma-Aldrich (St. Louis, […]
Cryopreserved hepatocytes from the male CD1 mouse, lot CSI; male Sprague Dawley rat, lot LPL; male beagle dog, lot BWX; male cynomolgus monkey, lot EHH; and pooled human samples, lot MJI, were purchased from In Vitro Technologies Inc (Baltimore, Maryland, […]
5.4. In vitro Incubations
On the day of the experiment a 10 mM stock solution of fexinidazole in DMSO was prepared and, within 3 hours, aliquots of this freshly prepared solution, after suitable dilution, were added to the incubation matrix, to reach fexinidazole final concentrations of 1 and 10 µM. The final percentage of DMSO was 0.01% in the incubation samples for the […]
On the day of experiment, the cryopreserved hepatocytes were thawed following the detailed instructions provided by the supplier.
The number of viable cells was determined using a Trypan Blue exclusion method.
5.4.1. Intrinsic Clearance Study […]
µM with mouse, rat, dog, monkey and human hepatocytes (300000 cells/mL for the mouse and 1 million cells/mL for the other species) in a final incubation volume of 0.75 mL […]
Incubations were performed in duplicate in a 48-well plate under shaking. Sampling was performed using an automatic liquid handling system (Multiprobe II EX, Packard). At 0, 1, 5, 10, 15, 20, 30, 60 and 120 minutes, 50 µL aliquots of the incubates were taken, then 80 µL of ice-cold acetonitrile and 20 µL of 1 µM warfarin in acetonitrile (internal standard) were added, and samples centrifuged at 2000 rpm for 20 min. The supernatant was analyzed by LC-MS/MS. […]
the medium alone at t = 0 and 120 minutes.
For the determination of phase I and phase II activity of hepatocytes, 7-ethoxycoumarin (7-EC) 1 µM, and 7-hydroxycoumarin (7-HC) 30 µM were used as positive controls and incubated under the same conditions as fexinidazole. Aliquots of incubates were taken at 0, 10, 20, 30, 60 and 120 minutes and processed as fexinidazole samples.
5.4.2. Metabolite Profile Study
For metabolite profiling, fexinidazole was incubated at a concentration of 10 µM with mouse, rat, dog, monkey and human hepatocytes (300000 cells/mL for the mouse and 1 million cells/mL for the other species) in a final incubation volume of 2 mL Leibovitz L-15 […]
Aliquots of the incubation samples were taken at t = 0, 30 and 120 minutes; the metabolism was stopped by the addition of an equal volume of cold acetonitrile and the samples centrifuged at 1500 rpm for 20 min. The supernatant was stored at -20°C until analysis. Control incubations were performed with the compound in the medium alone […]
5.5. Analysis of Samples for Intrinsic Clearance Determination
The analysis of the samples for intrinsic clearance determination was performed by an LC-MS/MS method, using the following conditions:
HPLC Equipment and Conditions
HPLC system Agilent 1100 binary pump (Agilent, Palo Alto, USA)
Autosampler CTC Pal (Alfatech, San Jose, USA)
Analytical column Guard Column SB-C8 4.6 x 12.5 mm, 5 µm (Zorbax)
Column temperature ambient
Mobile phase A 10 mM ammonium formate pH 4.0: acetonitrile (95:5, v:v)
Mobile phase B 10 mM ammonium formate pH 4.0: acetonitrile (5:95, v:v) […]
Gradient conditions Step Total time (min) flow (µL/min) %A % B […]
MS Equipment and Conditions
Mass spectrometer API 4000 Triple Quadrupole (MDS-Sciex, Toronto, […]
Source Turbo Ion Spray (TIS)
Ion mode Positive for fexinidazole and 7-EC.
Negative for 7-HC, 7-HC sulphate and 7-HC glucuronide.

CSc1ccc(OCc2ncc([N+](=O)[O-])n2C)cc1 [Fexinidazole, 1-methyl-2-((p-(methylthio)phenoxy)methyl)-5-nitroimidazole]
AUC0-tlast [1]: 416 ng⋅h/mL | Cmax [1]: 154 ng/mL | effects on embryo-foetal and early postnatal development [2]: no adverse effects on embryos/foetuses, parturition, and neonates | Net nuclear grain count (2–4 h) (rat liver cells; 500 mg/kg po): 0.0 | Net nuclear grain count (12–14 h) (rat liver cells; 500 mg/kg po): 0.4 | Net nuclear grain count (2–4 h) (rat liver cells; 1000 mg/kg po): −0.1 | Net nuclear grain count (12–14 h) (rat liver cells; 1000 mg/kg po): 0.5 | Net nuclear grain count (2–4 h) (rat liver cells; 2000 mg/kg po): −0.4 | Net nuclear grain count (12–14 h) (rat liver cells; 2000 mg/kg po): 0.2 | UDS study result (rat liver cells; rat, in vivo): confirmed the lack of mammalian genotoxic activity | half-life at 1 µM [3]: 13 min | CLint scaled at 1 µM ([3]; read-out: CLint in vitro): 124 mL/min/kg | hepatocyte CLint at 1 µM ([3]; read-out: CLint in vitro): 51.9 µL/min/1e6 cells
